Usually GI50 stands for the concentration at which growth is held to half of that of the control. Low values mean more potent growth inhibition, high ones less potent growth inhibition.

For data set [1], the target named is T1, tau (Homo sapiens, UniProt P10636). Kind of data set: Tau immunoblot of tau-BiFC cell lysates (reducing and nonreducing SDS-PAGE). The following applies: 5 μM, tauK18^P301L-activated tau-BiFC cells. Background: A western blot detects proteins with antibodies after separation by electrophoresis.
Protocol: For reducing SDS‒PAGE analysis, cell or brain lysates were mixed with 4x Laemmli buffer containing 10% β-mercaptoethanol (BME) and boiled at 97 °C for 5 min. For nonreducing SDS‒PAGE analysis, cell or brain lysates were mixed with 4x Laemmli buffer without BME. For immunoblot analysis, 10 μg of each lysate was separated on a 10% SDS–PAGE gel and transferred to a PVDF membrane. The levels of total tau and phosphorylated tau were detected by anti-tau antibodies against 2B11 (IBL), Tau5 (Abcam), pSer199 (Abcam), pSer396 (Abcam), and pThr205 (Abcam). […] Band intensity was quantified using ImageJ software (NIH). All data were normalized to β-actin.
Data set [2] deals with primary hippocampal neurons. Put plainly: NeuO staining, number of neurons and neurite lengths. It is filed as cell-based. The following applies: 3 μM, tauK18^P301L, 48 h. Here is the method:
(§1) Primary hippocampal neurons were isolated from Day 18 embryonic Sprague‒Dawley rat brains as described previously. The neurons were seeded at a density of 3.5 × 10^5 cells per well on a poly-D-lysine-coated 6-well plate and maintained in neurobasal medium at 37 °C in a humidified atmosphere of 5% CO2. The neurobasal medium contained 2% B27 supplement, 0.5 mM GlutaMAX, 100 units/mL penicillin, and 100 μg/mL streptomycin. Every 3 days, 50% of the medium was replaced with fresh neurobasal medium. At DIV10, neurons were incubated with MB, LMTM (3 µM), or levosimendan (10 µM) in the presence of tauK18^P301L (10 µg/mL) for 48 h.
At DIV10, neurons grown on a 96-well plate were treated with MB, LMTM (3 µM), or levosimendan (10 µM) followed by tauK18^P301L activation. After 48 h, the neurons were stained with NueO (50 nM), a neuron-selective probe. NeuO fluorescence (λex = 460–490 nm and λem = 518–580 nm) images were acquired by using Operetta® (PerkinElmer). The number of neurons and total lengths of neurites were quantified by Harmony 3.1 software (PerkinElmer). Error bars represent the standard deviations (S.D.) of four replicate experiments.

For data set [3], the target named is T2, tauK18 (Homo sapiens, UniProt P10636).
T2 construct: under in vitro conditions using a purified tauK18 fragment; 6xHis; made in house; host or cells: E. coli BL21 (DE3)
Kind of data set: TauK18 oligomerization assay in vitro (SDS-PAGE). It is filed as biochemical. To be noted: 100 μM, 5 h, nonreducing SDS-PAGE; DMSO control 50 ± 1.1%. As for the experimental part:
To induce tau oligomerization, tauK18 (0.5 mg/mL dissolved in PBS, pH 7.4) was incubated with each drug in the presence of DTT (100 μM) and heparin (0.1 mg/mL) at RT for 5 h with vigorous shaking. Then, tau oligomers were separated on 4–20% SDS‒PAGE gels under reducing and nonreducing conditions and visualized by Coomassie blue staining.

Data set [4] can be described thus: Cell viability of tau-BiFC cells (number of nuclei). It is filed as cell-based, human. To be noted: human, HEK293 Tau-BiFC cells, 48 h of treatment. Here is the method: HEK293 Tau-BiFC cells were maintained in Dulbecco’s modified Eagle medium (DMEM) supplemented with 10% fetal bovine serum (FBS), 100 units/mL penicillin, 100 µg/mL streptomycin and 100 µg/mL Geneticin (G418) in a humidified atmosphere containing 5% CO2 at 37 °C. Tau-BiFC cells were activated by treatment with FK (30 μM) or tauK18^P301L (5 μg/mL).
For screening of FDA-approved & Passed Phase I Drug Library, tau-BiFC cells were plated on µ-clear 384-well plates. The next day, the cells were cotreated with forskolin and 1,018 library compounds at a concentration of 10 µM. MB and LMTM (3 µM) were used as positive controls. After 46 h, nuclei were counterstained with Hoechst (Invitrogen). BiFC (λex = 460–490 nm and λem = 500–550 nm) and Hoechst (λex = 355–385 nm and λem = 430–500 nm) fluorescence images were acquired automatically by using Operetta® (PerkinElmer). BiFC fluorescence intensity and the number of nuclei were quantified using Harmony 3.1 software (PerkinElmer). Integrated tau-BiFC intensity represents the area of selected cell X mean fluorescence intensity. The means and standard deviations (S.D.) of BiFC fluorescence intensities and the number of nuclei were plotted using GraphPad Prism.

Data set [5] relates to tau. Put plainly: Tau immunoblot of primary hippocampal neuron lysates. It is filed as cell-based, rat. To be noted: 3 μM, nonreducing SDS-PAGE, primary neurons, tauK18^P301L; control 1.8 ± 0.3-fold. As for the experimental part:
Band intensity was quantified using ImageJ software (NIH). All data were normalized to β-actin.
as §1

The subject of a further data set is Tau-BiFC cells. Kind of data set: Flow cytometry analysis of tau-BiFC cells. It is filed as cell-based, human. To be noted: drug 5 μM with tauK18^P301L. As for the experimental part: After 24 h, BiFC cells were collected and subjected to flow cytometry analysis using a BD FACSLyric^TM cytometer (BD Biosciences). A total of 50,000 events were acquired per sample. All samples were gated using the same gating tree and gate positions: side scatter area (SSC-A) vs. forward scatter area (FSC-A) for viable and singlet cell populations. BiFC fluorescence was excited by a 488 nm wave laser and collected through a 527/32 bandpass filter.
(In flow cytometry, cells or beads pass a laser one at a time.)

For data set [6], the target named is T1, tau. Put plainly: Tau-BiFC response in tau-BiFC cells (high-content imaging). It is filed as cell-based. Also on record: expressed in transfected cells; host or cells: HEK293 Tau-BiFC cells (G418-selected). To be noted: 100 μM, 48 h, tauK18^P301L.
Data set [7] deals with T2, tauK18. Kind of data set: In vitro tau aggregation assay (thioflavin S). It is filed as biochemical. The following applies: heparin-induced, 5 days. Here is the method:
To evaluate the inhibitory effect of drugs on tau aggregation, tauK18 protein (0.5 mg/mL) was incubated with each drug at various concentrations in the presence of DTT (100 μM) and heparin (0.1 mg/mL) at 37 °C for 5 days with vigorous shaking (220 rpm). For the tau disaggregation assay, the preformed aggregation mixture of tauK18 was incubated with each drug at 37 °C for 4 days with vigorous shaking (220 rpm). On the final day of incubation, the level of β-sheet aggregates was evaluated by thioflavin S (ThS) assay. For the ThS assay, 5 μL of each mixture was transferred to a black 384-well plate with 45 μL of PBS containing 10 μM ThS. ThS fluorescence (λex = 430 nm, and λem = 500 nm) was measured by using a Flexstation2 spectrophotometer (Molecular Devices).

For another data set, the target named is T3, tau cysteines (Homo sapiens, UniProt P10636).
T3 construct: 6xHis; made in house; host or cells: E. coli BL21 (DE3)
Kind of data set: Covalent binding to tau (14C autoradiography, MALDI-TOF of R1-R4 peptides). To be noted: 720 μM with tauK18 72 μM, 2 h, RT. As for the experimental part: TauK18 (1 mg/mL, 72 μM) was incubated with ^14C-levosimendan (720 μM) in PBS containing 5% DMSO at RT for 2 h. Then, the mixture was separated on a 15% SDS–PAGE gel under nonreducing conditions and stained with Coomassie blue. For autoradiography, the SDS–PAGE gel was transferred to a PVDF membrane and scanned by Typhoon FLA 7000 IP (GE Healthcare).
Each repeat domain (R1, R2, R3, R4, R2-C291S or R3-C322S, 150 μM) was incubated with levosimendan (molar ratio 1:10 of a tau repeat domain: levosimendan) at RT for 37 h. The samples were mixed with matrix solution (10 mg mL^−1 sinapinic acid in 0.1% (v/v) trifluoroacetic acid/CAN) at a ratio of 1:1. The mixtures were directly spotted onto the MALDI target and dried. Mass spectra were acquired in reflection/linear positive ion mode in the m/z range of 2000–100,000 using an Ultraflex III TOF/TOF mass spectrometer controlled by Flex Control 3.0 (Bruker Daltonics). The default operating conditions were as follows: ion source 1, 25.0 kV; ion source 2, 23.0 kV; lens voltage, 6.0 kV; laser repetition rate = 100 Hz. All spectra were generated automatically in the instrument software and based on averaging 1000 shots from 10 nonoverlapping positions (100 shots/position).

Another data set has as its target tauK18 fragment. Put plainly: non-reducing SDS-PAGE with Coomassie staining (disulfide-linked oligomers); tauK18 0.5 mg/mL in PBS pH 7.4 with DTT (100 uM) and heparin (0.1 mg/mL), RT, 5 h, shaking; 4-20% gel; DMSO control, MB, LMTM or levosimendan (10, 30, 100 uM).

T1 sequence (P10636 1-441 isoform P10636-8): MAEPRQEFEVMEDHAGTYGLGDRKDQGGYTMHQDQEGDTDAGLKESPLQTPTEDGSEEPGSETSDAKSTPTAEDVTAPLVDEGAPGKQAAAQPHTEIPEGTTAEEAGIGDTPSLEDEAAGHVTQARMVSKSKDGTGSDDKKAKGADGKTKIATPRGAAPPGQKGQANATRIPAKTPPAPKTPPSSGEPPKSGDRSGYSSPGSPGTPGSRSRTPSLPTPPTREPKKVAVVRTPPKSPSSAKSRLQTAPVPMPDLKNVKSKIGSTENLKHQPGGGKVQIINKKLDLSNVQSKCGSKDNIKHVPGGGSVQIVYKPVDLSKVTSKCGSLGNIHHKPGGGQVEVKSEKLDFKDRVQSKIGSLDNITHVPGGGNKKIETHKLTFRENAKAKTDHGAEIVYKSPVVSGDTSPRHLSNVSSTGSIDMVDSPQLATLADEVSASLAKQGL
T1 sequence (P10636 1-441 isoform P10636-8): as above
T2 sequence (P10636 561-685 limits assumed): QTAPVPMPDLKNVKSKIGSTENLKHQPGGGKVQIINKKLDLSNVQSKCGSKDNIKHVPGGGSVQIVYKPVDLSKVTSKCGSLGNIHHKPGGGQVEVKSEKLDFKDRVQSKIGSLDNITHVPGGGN
T3 sequence (P10636 561-689 limits assumed): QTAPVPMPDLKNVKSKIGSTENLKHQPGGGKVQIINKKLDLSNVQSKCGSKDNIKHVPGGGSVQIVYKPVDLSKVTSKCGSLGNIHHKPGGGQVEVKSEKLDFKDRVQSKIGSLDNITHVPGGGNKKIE

`CN(C)c1ccc2nc3ccc(=[N+](C)C)cc-3sc2c1` [MB, methylene blue]: at tau [1] (nonreducing SDS-PAGE, control 2.4 ± 0.4-fold), the “Level of disulfide-linked tau oligomers compared to basal” value was determined as 1.6 ± 0.3 fold. Further, at tau [1] (reducing gel), the “Level of pS199-positive monomers compared to basal” value was found to be 0.2 ± 0.1 fold, the “Level of pS199-positive oligomers compared to basal” value is 0.4 ± 0.2 fold, the “Level of pT205-positive monomers compared to basal” value is 0.1 ± 0.1 fold and the “Level of pT205-positive oligomers compared to basal” value is on record as 0.7 ± 0.3 fold. For the same molecule, the “Number of NeuO-stained live neurons” value in data set [2] (basal 1925 ± 66, control 943 ± 30) is given as 986 ± 150 neurons. For the same molecule, the Neurite length result in data set [2] (control 142.8 ± 17.8 μm) was “did not show a significant effect on neuronal integrity”. Moreover, the “Level of disulfide-linked tau oligomers (of total tau)” value on tauK18 [3] was 77.6 ± 2.0%. Besides, in data set [4] (Tau-BiFC^ON by forskolin (30 μM)), the GI50 at 48 h amounted to 6.2 ± 0.4 µM. In data set [4] (Tau-BiFC^ON by tauK18^P301L (5 μg/mL)), this molecule returned a GI50 at 48 h of 7.1 ± 0.3 µM. In the data set on tau [5], the “Level of disulfide-linked tau oligomers compared to basal” value stood at 2.3 ± 0.5 fold. The “P1: intact cell population out of total cells” value in the data set on Tau-BiFC cells (24 h) came out at 13.7%. Moreover, the “Median BiFC fluorescence intensity of BiFC-responding cells” value with Tau-BiFC cells (BiFC^ON control […] ± 62, basal 332 ± 110) amounted to 648 ± 49.

Turning to `C[C@@H]1CC(=O)NN=C1c1ccc(N)cc1` [OR-1855], the “Inhibition of tau-BiFC fluorescence increase” value on tau [6] is given as “did not inhibit the tau-BiFC fluorescence increase”. In addition, on tauK18 [7], the “Inhibition of tau aggregation in vitro (ThS response)” value is on record as “did not inhibit tau aggregation in vitro”.

Regarding `CC(=O)Nc1ccc(C2=NNC(=O)C[C@H]2C)cc1` [OR-1896], the “Inhibition of tau-BiFC fluorescence increase” value on tau [6] was “did not inhibit the tau-BiFC fluorescence increase”. At tauK18 [7], the “Inhibition of tau aggregation in vitro (ThS response)” value is reported as “did not inhibit tau aggregation in vitro”.

In the case of `CC1CC(=O)NN=C1c1ccc(NN=C(C#N)[14C]#N)cc1` (stereo not shown) [^14C-levosimendan], the “Covalent labeling of tau on nonreducing SDS-PAGE (14C-radiography)” value at tau cysteines is “covalent attachment to tau”.

As for tauK18 fragment (domain or fragment), in the data set with tauK18 fragment, the percent of total tau as disulfide-linked oligomers (DMSO control) was determined as 50%.

The values above are taken from publication PMC10073126, “Levosimendan inhibits disulfide tau oligomerization and ameliorates tau pathology in Tau^P301L-BiFC mice” (Experimental & Molecular Medicine, 2023).
